Patent US20250049809A1, “INHIBITORS OF MUTANT IDH1 AND IDH2” (Board of Regents, The University of Texas System, priority 2023, published 2025)

Key:
mIDH1R132H/S280F = mIDH1R132H/S280F (Homo sapiens (Human), UniProt O75874, R132H/S280F); test: mIDH1 R132H/S280F enzymatic activity assay (NADPH fluorescence); assay type: biochemical; settings: enzyme assay, 1 hour preincubation; read-out: IDH1R132H/S280F IC50
Protocol: The enzymatic activity of mIDH1R132H/S280F was assessed by measuring the fluorescence of the NADPH. The assay was performed in 384 well, white ProxiPlates (PerkinElmer, 6008280) in assay buffer containing 50 mM Hepes (Life Technologies, 15630080), 50 mM KCl (Teknova, P0327), 10 mM MgCl2 (Sigma-Aldrich, M1028), 1 mM DTT (Sigma-Aldrich, 43815), 0.02% BSA (Sigma-Aldrich, A3059) at pH 7.5. The final reaction volume was 10 μL. Stock solutions of the test compounds were prepared in 100% DMSO (Sigma, D2650) and serially diluted 1:3 using 100% DMSO. 50 nL of compound were then transferred to the assay plate using the Beckman Coulter ECHO 650 Acoustic Liquid Handler for a final DMSO concentration of 0.5%. 5 μL of a mIDH1R132H/S280F and NADPH (Santa Cruz, SC202725C) mixture were added to the assay plate for a final concentration of 2 nM and […], respectively. 5 μL of NADPH alone were added to negative control wells followed by a 1 hour preincubation at room temperature. 5 μL of alphaketoglutarate (Sigma-Aldrich, K1128) were added to the assay plate for a final concentration of 120 μM. Fluorescence of NADPH (excitation: 350 nm, emission 450 nm) was immediately measured kinetically for approximately 90 minutes using the BioTek Synergy Neo plate reader.

WT IDH1 = WT IDH1 (Homo sapiens (Human), UniProt O75874); test: WT IDH1 enzymatic activity assay (NADPH fluorescence); assay type: biochemical; settings: enzyme assay
Protocol: (§1) The enzymatic activity of WT IDH1 was assessed by measuring the fluorescence of the NADPH generated in the enzymatic reaction. The assay was performed in 384 well, white ProxiPlates (PerkinElmer, 6008280) in assay buffer containing 50 mM Hepes (Life Technologies, 15630080), 50 mM KCl (Teknova, P0327), 10 mM MgCl2 (Sigma-Aldrich, M1028), 1 mM DTT (Sigma-Aldrich, 43815), 0.02% BSA (Sigma-Aldrich, A3059) at pH 7.5. The final reaction volume was 10 μL. Stock solutions of the test compounds were prepared in 100% DMSO (Sigma, D2650) and serially diluted 1:3 using 100% DMSO. 50 nL of compound were then transferred to the assay plate using the Beckman Coulter ECHO 650 Acoustic Liquid Handler for a final DMSO concentration of 0.5%. 5 μL of WT IDH1 were added to the assay plate for a final concentration of 0.5 nM. 5 μL of assay buffer alone were added to negative control wells. 5 μL of an isocitrate (Sigma-Aldrich, 58790) and NADP (Sigma-Aldrich, N5755) mixture were added to the assay plate for a final concentration of 5 μM and 15 μM, respectively. Fluorescence of NADPH (excitation: 350 nm, emission 450 nm) was immediately measured kinetically for approximately 15 minutes using the BioTek Synergy Neo plate reader.

WT IDH2 = WT IDH2 (Homo sapiens (Human), UniProt P48735); test: WT IDH2 enzymatic activity assay (NADPH fluorescence); assay type: biochemical; settings: enzyme assay
Protocol: as §1, with “IDH2” for “IDH1”

U87 IDH1R132H = U87 IDH1R132H (Homo sapiens (Human), UniProt O75874, R132H); test: U87 IDH1 R132H 2-HG cellular assay; assay type: cell-based; settings: extracellular 2HG, 24 h treatment, IDH1 mutant-U-87 isogenic cell line
Protocol: The IDH1 mutant-U-87 isogenic cell line (ATCC HTB-14IG) used to test cellular inhibition is a glioma IDH1R132H mutant isogenic line derived from the parental U-87MG cell line. These cells are maintained in EMEM (ATCC 30-2003) culture media with 10% FBS and 10 U/mL Penicillin-Streptomycin. Twelve thousand cells are plated in polystyrene 384 well cell culture plates (Greiner Bio-One 781091) (12,000 cells/well) approximately 18 hours before compound treatment. Immediately before treatment, the cells are washed twice with PBS, followed by culture media replenishing. Cells are then treated with different concentrations of test compounds (5 μM to 0.3 pM) for 24 h. Extracellular 2HG levels are measured from cell culture media. For analyte extraction, 30 μL of culture media is transferred to 120 uL 100% acetonitrile in a deep 384 well plate and mixed well, followed by 5 min centrifugation at 3700 rpm at room temperature. 100 μL of supernatant is transferred to a flat bottom 384 well plate. Samples are run on the Agilent RapidFire-Mass Spectrometry instrument to detect 2HG levels. The samples from each well were aspirated for 600 ms and loaded onto a HILIC solid-phase extraction cartridge (Agilent) followed by a wash step for 3000 ms with 90% acetonitrile containing 5 mM ammonium acetate. Analytes were then eluted off the cartridge into the Agilent 6460 Triple Quad mass spectrometer with a 4500 ms elution step using 30% acetonitrile containing 5 mM ammonium acetate. The HILIC cartridge was then re-equilibrated by 90% acetonitrile containing 5 mM ammonium acetate for 500 ms. The 2HG was detected by an Agilent 6460 Triple Quad mass spectrometer in negative ion mode. Multiple reaction monitoring was used to quantify 2HG using the precursor ion and product ion at m/z 147.03 and 128.9, respectively. The percent activity of each sample is calculated by using DMSO and control compound treated references, and IC50 values are obtained using the GeneData Screener data analysis program.

WT IDH2, sequence (P48735 40-452): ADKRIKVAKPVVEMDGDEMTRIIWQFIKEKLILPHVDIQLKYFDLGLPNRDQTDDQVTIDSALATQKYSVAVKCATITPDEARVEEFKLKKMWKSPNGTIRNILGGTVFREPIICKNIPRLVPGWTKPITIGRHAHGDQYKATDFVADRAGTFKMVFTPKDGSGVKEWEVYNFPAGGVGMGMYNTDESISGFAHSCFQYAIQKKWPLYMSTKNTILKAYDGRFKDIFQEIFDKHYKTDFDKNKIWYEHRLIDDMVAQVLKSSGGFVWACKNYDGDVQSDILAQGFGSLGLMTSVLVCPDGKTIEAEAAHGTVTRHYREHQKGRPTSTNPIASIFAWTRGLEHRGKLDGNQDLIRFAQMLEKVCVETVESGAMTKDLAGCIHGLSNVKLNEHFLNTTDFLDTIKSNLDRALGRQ
mIDH1R132H/S280F, sequence (O75874 whole entry R132H/S280F): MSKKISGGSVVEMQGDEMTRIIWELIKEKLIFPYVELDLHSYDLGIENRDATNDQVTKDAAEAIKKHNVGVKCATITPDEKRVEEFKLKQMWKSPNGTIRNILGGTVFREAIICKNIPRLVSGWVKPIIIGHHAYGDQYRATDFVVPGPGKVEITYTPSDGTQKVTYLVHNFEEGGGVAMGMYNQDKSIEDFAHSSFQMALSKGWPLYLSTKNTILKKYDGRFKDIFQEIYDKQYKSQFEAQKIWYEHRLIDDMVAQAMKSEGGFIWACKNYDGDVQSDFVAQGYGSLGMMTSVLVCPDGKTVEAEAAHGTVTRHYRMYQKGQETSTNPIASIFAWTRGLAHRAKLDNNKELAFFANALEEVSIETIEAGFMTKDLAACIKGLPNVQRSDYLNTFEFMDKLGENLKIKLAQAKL
U87 IDH1R132H, sequence (O75874 whole entry R132H): as the sequence (O75874 whole entry R132H/S280F) above, with F280S counted along it
WT IDH1, sequence (O75874 whole entry): as the sequence (O75874 whole entry R132H/S280F) above, with H132R, F280S counted along it

IC50 (mIDH1R132H/S280F) [nM]	IC50 (WT IDH1) [nM]	IC50 (WT IDH2) [nM]	IC50 (U87 IDH1R132H) [nM]	SMILES
295	> 16700	41200	0.2	C=CC(=O)N1CCN(C2CCCCCCCN3C(=O)OCc4cnc(nc43)N[C@@H](C)c3ccc2cc3)CC1 (stereo partly drawn) [Example 4, (3S)-5-(4-acryloylpiperazin-1-yl)-3-methyl-1^1,1^4-dihydro-1^2H-2-aza-1(7,1)-pyrimido[4,5-d][1,3]oxazina-4(1,4)-benzenacyclododecaphan-1^2-one]
260	3170	16200	0.14	C=CC(=O)N1CCN(C2CCCC/C=C/CN3C(=O)OCc4cnc(nc43)N[C@@H](C)c3ccc2cc3)CC1 (stereo partly drawn) [Example 3, (3S,E)-5-(4-acryloylpiperazin-1-yl)-3-methyl-1^1,1^4-dihydro-1^2H-2-aza-1(7,1)-pyrimido[4,5-d][1,3]oxazina-4(1,4)-benzenacyclododecaphan-10-en-1^2-one]
